Test results from patent US10398689B2, “Benzopiperidine derivative, preparation method thereof and medical use thereof” (Jiangsu Hengrui Medicine Co., Ltd., priority 2015, dated 2019).

Tests used:
MCF7 cells = experiment: Inhibition of the proliferation of MCF7 cells (Cell Titer-Glo); type: cell-based; settings: Homo sapiens, MCF-7 cells, 72 hours, read-out: IC50 value of inhibition effect on the proliferation of MCF7 cells
Outline: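 MCF-7 cells seeded 24 h, then treated with compound (0.5% DMSO final) in 2% FBS medium for 72 h at 37 °C; viability read by CellTiter-Glo luminescence. IC50 from luminescence vs log concentration; maximum inhibition scaled to AZD9496 at 100 nM set as 100%.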

[1] = Pharmacokinetics assay in BALB/C nude mice after intragastrical administration; type: in vivo; settings: female, mouse, po, 3 mg/kg, plasma; for Vd/F: read-out: Apparent Distribution Volume Vz/F; for AUC: read-out: Area Under Curve AUC; for CL/F: read-out: Clearance CL/F; for half-life: read-out: Half-Life t1/2 (converted); for MRT: read-out: Mean Residence Time MRT; for Cmax: read-out: Plasma Conc. Cmax
Protocol: BALB/C nude mice were used as test animals. The drug concentration in plasma at different time points was determined by LC/MS/MS after intragastrical administration of the compounds of Examples 1, 7, 8, 10, 11, 14, 16, 39 and 42 to BALB/C nude mice. The pharmacokinetic behavior of the compounds of the compounds of the present invention was studied and evaluated in BALB/C nude mice.
Eighty-one (81) female BALB/C nude mice, were equally divided into 9 groups, which were purchased from SINO-BRITSH SIPPR/BK LAB. ANIMAL LTD., CO, with Certificate No.: SOCK (Shanghai) 2008-0016.
The appropriate amount of each test compound was weighed, and successively added with 9% PEG400+0.5% tween 80+0.5% PVP+90% aqueous solution of 0.5% CMC.
After an overnight fasting, 81 female BALB/C nude mice were equally divided into 9 groups; and administered the test compounds intragastrically at an administration volume of 0.2 mL/10 g.
81 female Balb/C nude mice were administered the test compounds intragastrically after an overnight fasting. Blood (0.1 mL) was taken (3 animals at each time point) at 0.5, 1.0, 2.0, 4.0, 6.0, 8.0, 11.0, and 24.0 h after administration. The samples were stored in heparinized test tubes, and centrifuged for 10 minutes at 3,500 rpm to separate the blood plasma. The plasma samples were stored at −20° C.
The concentration of the prototype drug in the plasma and in the solution to be administered was determined by liquid chromatography tandem mass spectrometry (LC/MS MS).

Row | Compound | IC50 (MCF7 cells) | Vd/F [1] | AUC [1] | CL/F [1] | half-life [1] | MRT [1] | Cmax [1]
1 | CCc1ccc(N2C(C)Cc3cc(-c4cnn(C)c4)ccc3C2c2ccc(/C=C/C(=O)O)cc2)cc1 [Example 1, (E)-3-(4-((1R,3R/1S,3S)-2-(4-Ethylphenyl)-3-methyl-6-(1-methyl-1H-pyrazol-4-yl)-1,2,3,4-tetrahydroisoquinolin-1-yl)phenyl)acrylic acid] | 0.37 nM | 0.865 L/kg | 14400 ng·h/mL | 3.48 mL/min/kg | 2.87 h | 4.53 h | 3440 ng/mL
2 | CCn1cc(-c2ccc3c(c2)CC(C)N(c2ccc(C(C)C)cc2)C3c2ccc(/C=C/C(=O)O)cc2)cn1 [Example 7, (E)-3-(4-((1R,3R/1S,3S)-6-(1-Ethyl-1H-pyrazol-4-yl)-2-(4-isopropylphenyl)-3-methyl-1,2,3,4-tetrahydroisoquinolin-1-yl)phenyl)acrylic acid] | 0.86 nM | 1.23 L/kg | 12900 ng·h/mL | 3.88 mL/min/kg | 3.67 h | 6.8 h | 1280 ng/mL
3 | CCn1cc(-c2ccc3c(c2)C[C@@H](C)N(c2ccc(C(C)C)cc2)[C@@H]3c2ccc(/C=C/C(=O)O)cc2)cn1 [Example 8, (E)-3-(4-((1R,3R)-6-(1-Ethyl-1H-pyrazol-4-yl)-2-(4-isopropylphenyl)-3-methyl-1,2,3,4-tetrahydroisoquinolin-1-yl)phenyl)acrylic acid] | 0.17 nM | 1.51 L/kg | 9380 ng·h/mL | 5.33 mL/min/kg | 3.27 h | 5.26 h | 1620 ng/mL
4 | C[C@@H]1Cc2cc(-c3cnn(C)c3)ccc2[C@@H](c2ccc(/C=C/C(=O)O)cc2)N1c1ccc(C2CC2)cc1 [Example 11, (E)-3-(4-((1R,3R)-2-(4-Cyclopropylphenyl)-3-methyl-6-(1-methyl-1H-pyrazol-4-yl)-1,2,3,4-tetrahydroisoquinolin-1-yl)phenyl)acrylic acid] | 1.47 nM | 1.48 L/kg | 16400 ng·h/mL | 3.06 mL/min/kg | 5.58 h | 7.9 h | 1890 ng/mL
5 | CCn1cc(-c2ccc3c(c2)C[C@@H](C)N(c2ccc(C4CC4)cc2)[C@@H]3c2ccc(/C=C/C(=O)O)cc2)cn1 [Example 14, (E)-3-(4-((1R,3R)-2-(4-Cyclopropylphenyl)-6-(1-ethyl-1H-pyrazol-4-yl)-3-methyl-1,2,3,4-tetrahydroisoquinolin-1-yl)phenyl)acrylic acid] | 0.53 nM | 1.26 L/kg | 14800 ng·h/mL | 3.39 mL/min/kg | 4.29 h | 6.73 h | 2480 ng/mL
6 | CC(C)c1ccc(N2[C@H](c3ccc(/C=C/C(=O)O)cc3)c3ccc(-c4cnn(C)c4)cc3C[C@H]2C)cc1 [Example 42, (E)-3-(4-((1R,3R)-2-(4-Isopropylphenyl)-3-methyl-6-(1-methyl-1H-pyrazol-4-yl)-1,2,3,4-tetrahydroisoquinolin-1-yl)phenyl)acrylic acid] | 0.34 nM | 3.1 L/kg | 11200 ng·h/mL | 4.46 mL/min/kg | 8.04 h | 9.21 h | 1270 ng/mL
